Experimental data: ChEMBL document CHEMBL4382214, “Antileishmanial activity of new hybrid tetrahydroquinoline and quinoline derivatives with phosphorus substituents” (Eur J Med Chem, 2019)
pEC50, pIC50: −log10 of the molar value. Active and inactive are the calls of the source. The calls are words filed in the database; no cut-off is given here.

How the values were obtained:
Leishmania donovani [1] = test: Inhibition of Leishmania donovani Top1B expressed in Top1B deficient Saccharomyces cerevisiae EKY3 assessed as decrease in relaxation of supercoiled pSK DNA preincubated for 15 mins followed by DNA addition and measured after 2 to 16 mins by agarose gel electrophoresis
Leishmania infantum [2] = test: Leishmanicidal activity against promastigote stage of iRFP expressing Leishmania infantum BCN150 assessed as decrease in parasite viability after 72 hrs by fluorescence assay; assay type: functional, organism-based; conditions: BCN150, 72 h
[3] = Selectivity index, ratio of CC50 for BALB/c mouse splenocytes to EC50 for amastigote stage of iRFP expressing Leishmania infantum BCN150 infected in BALB/c mouse splenocytes; assay type: toxicity, cell-based; conditions: read-out: Ratio CC50/EC50
[4] = Cytotoxicity against BALB/c mouse splenocytes assessed as reduction in cell viability by alamar blue assay; assay type: cell-based, Splenocyte
Leishmania infantum [5] = test: Leishmanicidal activity against amastigote stage of iRFP expressing Leishmania infantum BCN150 infected in BALB/c mouse splenocytes assessed as decrease in parasite viability by fluorescence assay; assay type: functional, organism-based
[6] = Inhibition of Leishmania donovani Top1B expressed in Top1B deficient Saccharomyces cerevisiae EKY3 assessed as decrease in relaxation of supercoiled pSK DNA preincubated for 15 mins followed by DNA addition and measured after 5 mins by agarose gel electrophoresis; conditions: for pIC50: read-out: IC50
DNA topoisomerase 1 = biological target: T1, DNA topoisomerase 1 (Homo sapiens, UniProt P11387); test: Inhibition of human Top1B expressed in Top1B deficient Saccharomyces cerevisiae EKY3 assessed as decrease in relaxation of supercoiled pSK DNA preincubated for 15 mins followed by DNA addition and measured after 5 mins by agarose gel electrophoresis; conditions: for pIC50: read-out: IC50
T1 sequence (P11387 whole entry): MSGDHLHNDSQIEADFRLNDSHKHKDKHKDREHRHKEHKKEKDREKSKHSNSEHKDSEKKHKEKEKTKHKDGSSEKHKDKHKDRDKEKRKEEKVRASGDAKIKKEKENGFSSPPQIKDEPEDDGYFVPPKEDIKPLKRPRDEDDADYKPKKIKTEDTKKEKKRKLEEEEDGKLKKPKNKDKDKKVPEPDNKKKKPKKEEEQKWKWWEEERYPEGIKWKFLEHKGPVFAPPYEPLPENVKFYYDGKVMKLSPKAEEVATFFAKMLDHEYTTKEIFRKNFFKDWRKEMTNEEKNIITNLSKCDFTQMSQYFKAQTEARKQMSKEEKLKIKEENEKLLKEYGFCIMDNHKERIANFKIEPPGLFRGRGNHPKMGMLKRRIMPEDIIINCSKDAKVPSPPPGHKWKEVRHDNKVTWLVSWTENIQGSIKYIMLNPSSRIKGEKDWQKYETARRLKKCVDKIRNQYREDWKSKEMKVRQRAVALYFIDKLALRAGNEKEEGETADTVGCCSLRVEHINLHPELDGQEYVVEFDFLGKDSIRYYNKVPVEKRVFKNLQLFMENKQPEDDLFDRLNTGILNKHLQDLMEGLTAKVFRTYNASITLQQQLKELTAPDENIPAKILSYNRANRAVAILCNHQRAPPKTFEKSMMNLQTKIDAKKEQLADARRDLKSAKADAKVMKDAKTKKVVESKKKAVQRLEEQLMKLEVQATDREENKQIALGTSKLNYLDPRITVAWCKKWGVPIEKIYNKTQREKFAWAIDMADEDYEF

[7] = biological target: T2, DNA topoisomerase 1 (Homo sapiens) (UniProt P11387); test: Inhibition of human Top1B expressed in Top1B deficient Saccharomyces cerevisiae EKY3 assessed as decrease in relaxation of supercoiled pSK DNA preincubated for 15 mins followed by DNA addition and measured after 2 to 16 mins by agarose gel electrophoresis
T2 sequence (whole entry): T1 sequence (P11387 whole entry)

Leishmania donovani [8] = test: Inhibition of Leishmania donovani Top1B expressed in Top1B deficient Saccharomyces cerevisiae EKY3 assessed as decrease in relaxation of supercoiled pSK DNA preincubated for 15 mins followed by DNA addition and measured after 16 mins by agarose gel electrophoresis
[9] = biological target: T2, DNA topoisomerase 1 (Homo sapiens); test: Inhibition of human Top1B expressed in Top1B deficient Saccharomyces cerevisiae EKY3 assessed as decrease in relaxation of supercoiled pSK DNA preincubated for 15 mins followed by DNA addition and measured after 16 mins by agarose gel electrophoresis
[10] = biological target: T2, DNA topoisomerase 1 (Homo sapiens); test: Inhibition of human Top1B expressed in Top1B deficient Saccharomyces cerevisiae EKY3 assessed as decrease in relaxation of supercoiled pSK DNA preincubated for 15 mins followed by DNA addition and measured after 2 to 8 mins by agarose gel electrophoresis
Leishmania donovani [11] = test: Inhibition of Leishmania donovani Top1B expressed in Top1B deficient Saccharomyces cerevisiae EKY3 assessed as decrease in relaxation of supercoiled pSK DNA preincubated for 15 mins followed by DNA addition and measured after 2 to 8 mins by agarose gel electrophoresis
Leishmania donovani [12] = test: Inhibition of Leishmania donovani Top1B expressed in Top1B deficient Saccharomyces cerevisiae EKY3 assessed as decrease in relaxation of supercoiled pSK DNA preincubated for 15 mins followed by DNA addition and measured after 2 mins by agarose gel electrophoresis
Leishmania donovani [13] = test: Inhibition of Leishmania donovani Top1B expressed in Top1B deficient Saccharomyces cerevisiae EKY3 assessed as decrease in relaxation of supercoiled pSK DNA preincubated for 15 mins followed by DNA addition and measured after 4 to 16 mins by agarose gel electrophoresis
Leishmania donovani [14] = test: Inhibition of Leishmania donovani Top1B expressed in Top1B deficient Saccharomyces cerevisiae EKY3 assessed as decrease in relaxation of supercoiled pSK DNA preincubated for 15 mins followed by DNA addition and measured after 8 to 16 mins by agarose gel electrophoresis
Leishmania donovani [15] = test: Inhibition of Leishmania donovani Top1B expressed in Top1B deficient Saccharomyces cerevisiae EKY3 assessed as decrease in relaxation of supercoiled pSK DNA preincubated for 15 mins followed by DNA addition and measured after 2 to 4 mins by agarose gel electrophoresis
[16] = biological target: T2, DNA topoisomerase 1 (Homo sapiens); test: Inhibition of human Top1B expressed in Top1B deficient Saccharomyces cerevisiae EKY3 assessed as decrease in relaxation of supercoiled pSK DNA preincubated for 15 mins followed by DNA addition and measured after 8 to 16 mins by agarose gel electrophoresis
[17] = biological target: T2, DNA topoisomerase 1 (Homo sapiens); test: Inhibition of human Top1B expressed in Top1B deficient Saccharomyces cerevisiae EKY3 assessed as decrease in relaxation of supercoiled pSK DNA preincubated for 15 mins followed by DNA addition and measured after 2 to 4 mins by agarose gel electrophoresis

SMILES	inhibition (Leishmania donovani [1])	pEC50 (Leishmania infantum [2])	selectivity ratio [3]	CC50 [4]	pEC50 (Leishmania infantum [5])	IC50 [6]	IC50 (DNA topoisomerase 1)	inhibition [7]	pIC50 [6]	pIC50 (DNA topoisomerase 1)	inhibition (Leishmania donovani [8])	inhibition [9]	inhibition [10]	inhibition (Leishmania donovani [11])	inhibition (Leishmania donovani [12])	inhibition (Leishmania donovani [13])	inhibition (Leishmania donovani [14])	inhibition (Leishmania donovani [15])	inhibition [16]	inhibition [17]
COc1ccccc1[C@@H]1C[C@H](c2ccccc2)c2cccc(P(=O)(c3ccccc3)c3ccccc3)c2N1 (relative stereo)	inactive	5.03	34.9	34.2 µM	6.01	Not Active	Not Active													
COc1ccc([C@@H]2C[C@H](c3ccc(C)cc3)c3cccc(P(c4ccccc4)c4ccccc4)c3N2)cc1 (relative stereo)	Active	4.56	> 8.4	> 50 µM	5.22			Active	4.63	4.07										
Fc1ccc(-c2cc(-c3ccc(F)cc3)c3cccc(P(=S)(c4ccccc4)c4ccccc4)c3n2)cc1	inactive	4.96		92.1 µM	< 5.00	Not Active	Not Active													
Fc1ccc([C@H]2C[C@@H](c3ccccc3)Nc3c2cccc3P(c2ccccc2)c2ccccc2)cc1 (relative stereo)	Active	5.50	51.8	90.6 µM	5.76			Active	4.27	4.37										
O=P(c1ccccc1)(c1ccccc1)c1cccc2c(-c3ccc(F)cc3)cc(-c3ccccc3)nc12	inactive	5.22	51.1	71 µM	5.86	Not Active	Not Active													
O=P(c1ccccc1)(c1ccccc1)c1cccc2c(-c3ccc(F)cc3)cc(-c3ccc(F)c(F)c3)nc12		5.63	11.1	23.9 µM	5.67				4.32	4.16	inactive	inactive	Active	Active						
CC[C@@]1(O)C(=O)OCc2c1cc1n(c2=O)Cc2cc3ccccc3nc2-1 [CAMPTOTHECIN]						Not Active	Not Active								Active	inactive				
Cc1ccc([C@H]2C[C@@H](c3ccc(F)cc3)Nc3c2cccc3P(=O)(c2ccccc2)c2ccccc2)cc1 (relative stereo)	inactive	5.15	7.47	13.8 µM	5.73	Not Active	Not Active													
COc1ccc([C@@H]2C[C@H](c3ccccc3)c3cccc(P(=S)(c4ccccc4)c4ccccc4)c3N2)cc1 (relative stereo)		4.97	56.9	34.7 µM	6.21		Not Active		4.03								inactive	Active		
Cc1ccc([C@H]2C[C@@H](c3ccc(F)cc3)Nc3c2cccc3P(c2ccccc2)c2ccccc2)cc1 (relative stereo)	Active	4.68	26.2	47 µM	5.75			Active	4.32	4.35										
O=P(c1ccccc1)(c1ccccc1)c1cccc2c1N[C@H](c1ccc(F)c(F)c1)C[C@@H]2c1ccc(F)cc1 (relative stereo)	inactive	5.21	43.6	63.7 µM	5.84	Not Active	Not Active													
Fc1ccc(-c2cc(-c3ccc(C(F)(F)F)cc3)nc3c(P(=S)(c4ccccc4)c4ccccc4)cccc23)cc1		5.05		89.7 µM	< 5.00				4.46	4.56							inactive	Active	inactive	Active
O=P(c1ccccc1)(c1ccccc1)c1cccc2c(-c3ccccc3)cc(-c3ccc4ccccc4c3)nc12	inactive	5.31	13.8	57.1 µM	5.38	Not Active	Not Active													
O=[N+]([O-])c1ccc([C@@H]2C[C@H](c3ccccc3)c3cccc(P(=S)(c4ccccc4)c4ccccc4)c3N2)cc1 (relative stereo)	inactive	4.44	20.9	57 µM	5.56	Not Active	Not Active													
C[C@@H]1[C@H](O)[C@@H](C)/C=C/C=C/C=C/C=C/C=C/C=C/C=C/[C@H](O[C@@H]2O[C@H](C)[C@@H](O)[C@H](N)[C@@H]2O)C[C@@H]2O[C@](O)(C[C@@H](O)C[C@@H](O)[C@H](O)CC[C@@H](O)C[C@@H](O)CC(=O)O[C@H]1C)C[C@H](O)[C@H]2C(=O)O [AMPHOTERICIN B]		6.11	62.5	> 20 µM	6.49															
